For data set [1] the following is noted: cited from earlier work.
The conditions of data set [2]: cited from earlier work; for Biodistribution: in vivo.
A further data set addresses T1, HIV RT (Human immunodeficiency virus type 1 group M subtype B, UniProt P04585).
T1 construct: Atevirdine/nonnucleoside reverse
The conditions noted are these: cited from earlier work.

For data set [3] the following is noted: in vivo; cited from earlier work.
The next data set deals with TA-50 ribozyme. In words: Theophylline-dependent self-cleavage of ribozyme TA-50. The settings on record: FIG. 9. It is filed as biochemical.

Where two headings read alike, the source gives them in different places.

Turning to `CCNc1cccnc1N1CCN(C(=O)c2cc3cc(OC)ccc3[nH]2)CC1` [Atevirdine], in data set [1] (oral), the Bioavailability result is listed as “well absorbed orally” and the “time to peak serum” value was 30 to 60 min. Moreover, the Biodistribution result in data set [2] is “Widely distributed, crosses blood-brain”. Also, the “maximum concentration of drug in serum” value in data set [2] (oral delivery) is on record as “delivery): 7.3 uM”. The “Other Pharmacology” value on HIV RT is “Viral target, no other known activity”.
As usually defined, the Tmax is the time at which the peak concentration occurs. On to `Cl.O=C(O)c1cn(C2CC2)c2c(Cl)c(N3C[C@@H]4CCCN[C@@H]4C3)c(F)cc2c1=O` [Bay-y-3118], for which, in data set [1] (oral), the Bioavailability entry is recorded as “Orally absorbed”, the Half life was 11.4 h and the Tmax is 1.3 h. In addition, the “Toxicity/Drug Interactions” value in data set [3] is “No abnormal findings in humans”.
Regarding `CN1CCN(c2cc3c(cc2F)c(=O)c(C(=O)O)cn3-c2ccc(F)cn2)CC1.Cl` [Fandofloxacin], the Bioavailability result in data set [1] (oral) is reported as “Orally absorbed”. Besides, the Biodistribution result in data set [2] is reported as “Good organ distribution including muscle”. For the same molecule, in data set [3], the “Toxicity/Drug Interactions” value is “Well tolerated, v. low phototoxicity”.
For `Cc1oc(-c2ccccc2)nc1CCOc1ccc(C[C@H](Nc2ccccc2C(=O)c2ccccc2)C(=O)O)cc1` [GW-2570], in data set [1] (in vivo, po), the Bioavailability result is “Oral”. Moreover, the Biodistribution result in data set [2] is “Muscle and adipose”.
On to `O=C1NC(=O)C(Cc2ccc3cc(OCc4ccccc4F)ccc3c2)S1` (stereo not shown) [MCC-555], for which the Bioavailability result in data set [1] (in vivo, po) was “Oral”. The Biodistribution result in data set [2] is “Muscle and adipose”. Moreover, the “Toxicity/Drug Interactions” value in data set [3] is “Liver toxicity (controversial)”.
As to `COc1ccc2c(c1)N(C(=O)OC(C)C)[C@@H](CSC)C(=S)N2` [Talviraline], the Biodistribution result in data set [2] is listed as “Wide”. Further, on HIV RT, the “Other Pharmacology” value was “Viral target, no other known activity”.
As for `CSc1nc2cc(Cl)c(Oc3cccc(Cl)c3Cl)cc2[nH]1` [Triclabendazole], in data set [1] (oral), the Bioavailability result is on record as “Oral”. For the same molecule, the Biodistribution result in data set [2] is “Liver/metabolism important”. In data set [3], the “Toxicity/Drug Interactions” value was “Low/none in humans”.
Take `Cn1c(=O)c2[nH]cnc2n(C)c1=O` [theophylline]: the “theophylline concentration giving highest cleavage activity of TA-50 ribozyme” value in the data set on TA-50 ribozyme was 10 to 50 µM. The “Toxicity/Drug Interactions” value in data set [3] is reported as “acceptable”.

B1: TA-50: theophylline-responsive self-cleaving hammerhead ribozyme sequence selected after seven cycles, SEQ ID NO:5 (nucleic acid)
chain: GGGAGAGGGAUCCAGCUGACGAGUACUGAAUACCAGCCGAAAGGCCCUUGGCAGGUUUGGUGAAACGCCUUCGGCGUCCUGGAUUAGAACUUC
modifications: listed as RNA, chemistry not given here
B1: the self-cleaving ability result in the data set with TA-50 ribozyme (presence of theophylline) is on record as “strongly dependent on the presence of theophylline”.

Values taken from US20050239061A1, “Identification and use of effectors and allosteric molecules for the alteration of gene expression” (priority 2000, published 2005).
